Earlier results on two molecules are cited in patent US6521209B1, “Bifunctional detection agents” (California Institute of Technology, priority 1996, dated 2003).

For this data set the following is noted: for stability constant (K), formation constant, logK: Gd(III) complex.

Turning to `O=C([O-])CN(CCN(CC(=O)[O-])CC(=O)O)CCN(CC(=O)[O-])CC(=O)O.[Gd+3]` [Gd(DTPA)], the “stability constant (K), formation constant, logK” value is on record as 22.4.

Take `O=C([O-])CN1CCN(CC(=O)[O-])CCN(CC(=O)O)CCN(CC(=O)[O-])CC1.[Gd+3]` [Gd-DOTA]: the “stability constant (K), formation constant, logK” value is 28.5. Also, the dissociation kinetics result (at physiological pH) is “very slow dissociation kinetics”.
